Results published in patent US20170240556A1, “BIFLUORODIOXALANE-AMINO-BENZIMIDAZOLE KINASE INHIBITORS FOR THE TREATMENT OF CANCER, AUTOIMMUNEINFLAMMATION AND CNS DISORDERS” (4SC DISCOVERY GMBH, priority 2012, published 2017).

Experiments:
[1] = target: Casein kinase 1 delta (CSKN1D) (Homo sapiens, UniProt P48730); test: Casein kinase assay, CK1 delta; assay type: biochemical; conditions: recombinant CSKN1D 5 nM, ATP 10 μM
[2] = target: Casein kinase 1 epsilon (CSKN1E) (Homo sapiens, UniProt P49674); test: Casein kinase assay, CK1 epsilon; assay type: biochemical; conditions: recombinant CSKN1E 30 nM, ATP 10 μM
Procedure: The recombinant protein Casein kinase 1 delta (CSKN1D) was added to the substrate solution in a concentration of 5 nM and gently mixed. Dilution series in of compounds of the present invention in DMSO were added to the reaction mixture, followed after 20 min by addition of a mixture of ATP and ^33P-ATP (specific activity 0.01 μCi/μl final) to a final concentration of 10 μM. Reactions were carried out at 25° C. for 120 min, followed by spotting the reactions onto P81 ion exchange filter paper. Unbound phosphate was removed by washing of the filters in 0.75% phosphoric acid. […] IC50 values and curve fits were obtained using the program Prism® (Graph Pad Software).
The above assay was also used to determine the inhibitory capacity of the compounds of the present invention on Casein Kinase 1 epsilon, wherein instead of CSKN1D, recombinant protein Casein kinase 1 epsilon (CSKN1E) was added to the substrate solution in a concentration of 30 nM and gently mixed.

Chain of Casein kinase 1 delta (CSKN1D) (P48730 whole entry): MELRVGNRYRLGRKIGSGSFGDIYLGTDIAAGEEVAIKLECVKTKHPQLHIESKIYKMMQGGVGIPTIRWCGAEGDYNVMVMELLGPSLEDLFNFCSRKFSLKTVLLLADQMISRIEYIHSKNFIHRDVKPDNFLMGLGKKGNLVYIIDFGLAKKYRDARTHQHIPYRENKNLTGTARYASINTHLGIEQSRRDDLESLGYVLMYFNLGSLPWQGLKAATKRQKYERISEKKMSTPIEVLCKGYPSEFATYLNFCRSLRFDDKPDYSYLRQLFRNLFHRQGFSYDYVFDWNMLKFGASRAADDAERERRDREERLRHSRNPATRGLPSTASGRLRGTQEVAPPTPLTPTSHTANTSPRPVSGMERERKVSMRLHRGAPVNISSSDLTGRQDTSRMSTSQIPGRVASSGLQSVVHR
Chain of Casein kinase 1 epsilon (CSKN1E) (P49674 whole entry): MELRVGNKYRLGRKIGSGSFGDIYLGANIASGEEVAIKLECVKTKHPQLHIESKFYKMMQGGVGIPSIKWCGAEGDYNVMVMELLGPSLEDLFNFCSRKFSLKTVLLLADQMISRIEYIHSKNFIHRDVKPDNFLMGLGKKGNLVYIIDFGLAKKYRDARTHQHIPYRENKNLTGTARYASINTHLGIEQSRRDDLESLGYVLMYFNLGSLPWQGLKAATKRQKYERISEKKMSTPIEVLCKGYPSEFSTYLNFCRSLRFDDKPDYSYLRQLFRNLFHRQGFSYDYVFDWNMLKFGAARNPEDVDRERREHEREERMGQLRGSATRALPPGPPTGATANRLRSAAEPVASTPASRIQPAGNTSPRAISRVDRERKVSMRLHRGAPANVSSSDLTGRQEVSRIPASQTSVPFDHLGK

IC50 [1] [nM]	IC50 [2] [nM]	Compound
< 200	< 200	O=C(Nc1nc(C(=O)Nc2nc3cc4c(cc3[nH]2)OC(F)(F)O4)cs1)c1ccncc1 [Compound 21, N-(2,2-difluoro-5H-[1,3]dioxolo[4′,5′:4,5]benzo[1,2-d]imidazol-6-yl)-2-(isonicotinamido)thiazole-4-carboxamide]
200 to 1000	> 1000	Nc1ncc(Br)nc1C(=O)Nc1nc2cc3c(cc2[nH]1)OC(F)(F)O3 [Compound 22, 2-amino-6-bromo-N-(2,2-difluoro-5H-[1,3]dioxolo[4′,5′:4,5]benzo[1,2-d]imidazol-6-yl)pyrazine-2-carboxamide]
> 1000	> 1000	O=C(Nc1nc2cc3c(cc2[nH]1)OC(F)(F)O3)c1csc(Nc2ccc(OC(F)(F)F)cc2)n1 [Compound 23, N-(2,2-difluoro-5H-[1,3]dioxolo[4′,5′:4,5]benzo[1,2-d]imidazol-6-yl)-2-((4-(trifluoromethoxy)phenyl)amino)thiazole-4-carboxamide]
200 to 1000	200 to 1000	O=C(Nc1nc2cc3c(cc2[nH]1)OC(F)(F)O3)c1coc(N2CCOCC2)n1 [Compound 24, N-(2,2-difluoro-5H-[1,3]dioxolo[4′,5′:4,5]benzo[1,2-d]imidazol-6-yl)-2-morpholinooxazole-4-carboxamide]
> 1000	> 1000	Cc1cc(C(F)(F)F)nc(Nc2nc(C(=O)Nc3nc4cc5c(cc4[nH]3)OC(F)(F)O5)cs2)n1 [Compound 25, N-(2,2-difluoro-5H-[1,3]dioxolo[4′,5′:4,5]benzo[1,2-d]imidazol-6-yl)-2-((4-methyl-6-(trifluoromethyl)pyrimidin-2-yl)amino)thiazole-4-carboxamide]
< 200	< 200	O=C(Nc1nc(C(=O)Nc2nc3cc4c(cc3[nH]2)OC(F)(F)O4)cs1)Nc1ccccc1OC(F)(F)F [Compound 26, N-(2,2-difluoro-5H-[1,3]dioxolo[4′,5′:4,5]benzo[1,2-d]imidazol-6-yl)-2-(3-(2-(trifluoromethoxy)phenyl)ureido)thiazole-4-carboxamide]
200 to 1000	200 to 1000	Cc1cc(C(=O)Nc2nc3cc4c(cc3[nH]2)OC(F)(F)O4)c(C)s1 [Compound 28, N-(2,2-difluoro-5H-[1,3]dioxolo[4′,5′:4,5]benzo[1,2-d]imidazole-6-yl)-2,5-dimethylthiophene-3-carboxamide]
< 200	< 200	O=C(Nc1nc2cc3c(cc2[nH]1)OC(F)(F)O3)c1csc(Br)c1 [Compound 29, 5-bromo-N-(2,2-difluoro-5H-[1,3]dioxolo[4′,5′:4,5]benzo[1,2-d]imidazole-6-yl)-thiophene-3-carboxamide]
< 200	< 200	O=C(Nc1nc2cc3c(cc2[nH]1)OC(F)(F)O3)c1csc([N+](=O)[O-])c1 [Compound 30, N-(2,2-difluoro-5H-[1,3]dioxolo[4′,5′:4,5]benzo[1,2-d]imidazole-6-yl)-5-nitrothiophene-3-carboxamide]
< 200	200 to 1000	O=C(Nc1nc2cc3c(cc2[nH]1)OC(F)(F)O3)c1csc2ccccc12 [Compound 31, N-(2,2-difluoro-5H-[1,3]dioxolo[4′,5′:4,5]benzo[1,2-d]imidazol-6-yl)benzo[b]thiophene-3-carboxamide]
200 to 1000	< 200	O=C(Nc1nc2cc3c(cc2[nH]1)OC(F)(F)O3)c1ccoc1 [Compound 32, N-(2,2-difluoro-5H-[1,3]dioxolo[4′,5′:4,5]benzo[1,2-d]imidazol-6-yl)furan-3-carboxamide]
< 200	200 to 1000	Cc1occc1C(=O)Nc1nc2cc3c(cc2[nH]1)OC(F)(F)O3 [Compound 33, N-(2,2-difluoro-5H-[1,3]dioxolo[4′,5′:4,5]benzo[1,2-d]imidazol-6-yl)-2-methylfuran-3-carboxamide]
> 1000	> 1000	Cc1cc(C(=O)Nc2nc3cc4c(cc3[nH]2)OC(F)(F)O4)c(C)o1 [Compound 34, N-(2,2-difluoro-5H-[1,3]dioxolo[4′,5′:4,5]benzo[1,2-d]imidazol-6-yl)-2,5-dimethylfuran-3-carboxamide]
200 to 1000	> 1000	O=C(Nc1nc2cc3c(cc2[nH]1)OC(F)(F)O3)c1cocn1 [Compound 35, N-(2,2-difluoro-5H-[1,3]dioxolo[4′,5′:4,5]benzo[1,2-d]imidazol-6-yl)-oxazole-4-carboxamide]
200 to 1000	> 1000	O=C(Nc1nc2cc3c(cc2[nH]1)OC(F)(F)O3)c1nnn(-c2cccc(F)c2)c1C(F)(F)F [Compound 36, N-(2,2-difluoro-5H-[1,3]dioxolo[4′,5′:4,5]benzo[1,2-d]imidazol-6-yl)-1-(3-fluorophenyl)-5-(trifluoromethyl)-1H-1,2,3-triazole-4-carboxamide]
< 200	200 to 1000	O=C(Nc1nc2cc3c(cc2[nH]1)OC(F)(F)O3)c1csc(N2CCOCC2)n1 [Compound 37, N-(2,2-difluoro-5H-[1,3]dioxolo[4′,5′:4,5]benzo[1,2-d]imidazol-6-yl)-2-morpholinothiazole-4-carboxamide]
< 200	200 to 1000	O=C(Nc1nc2cc3c(cc2[nH]1)OC(F)(F)O3)c1csc(-c2ccc3c(c2)CCO3)c1 [Compound 38, N-(2,2-difluoro-5H-[1,3]dioxolo[4′,5′:4,5]benzo[1,2-d]imidazol-6-yl)-5-(2,3-dihydrobenzofuran-5-yl)thiophene-3-carboxamide]
> 1000	200 to 1000	O=C(Nc1nc2cc3c(cc2[nH]1)OC(F)(F)O3)c1csc(-c2ccc3c(c2)OCO3)n1 [Compound 39, 2-(benzo[d][1,3]dioxol-5-yl)-N-(2,2-difluoro-5H-[1,3]dioxolo[4′,5′:4,5]benzo[1,2-d]imidazol-6-yl)thiazole-4-carboxamide]
> 1000	> 1000	O=C(Nc1nc2cc3c(cc2[nH]1)OC(F)(F)O3)c1coc(-c2ccc3c(c2)CCO3)n1 [Compound 40, N-(2,2-difluoro-5H-[1,3]dioxolo[4′,5′:4,5]benzo[1,2-d]imidazol-6-yl)-2-(2,3-dihydrobenzofuan-5-yl)oxazole-4-carboxamide]
< 200	< 200	O=C(Nc1nc2cc3c(cc2[nH]1)OC(F)(F)O3)c1cccc(Cl)c1 [Compound 41, 3-chloro-N-(2,2-difluoro-5H-[1,3]dioxolo[4′,5′:4,5]benzo[1,2-d]imidazol-6-yl)benzamide]
> 1000	> 1000	Cc1nnsc1C(=O)Nc1nc2cc3c(cc2[nH]1)OC(F)(F)O3 [Compound 42, N-(2,2-difluoro-5H-[1,3]dioxolo[4′,5′:4,5]benzo[1,2-d]imidazol-6-yl)-4-methyl-1,2,3-thiadiazole-5-carboxamide]
200 to 1000	200 to 1000	O=C(Nc1nc2cc3c(cc2[nH]1)OC(F)(F)O3)c1ccc(Cl)cc1Cl [Compound 43, 2,4-dichloro-N-(2,2-difluoro-5H-[1,3]dioxolo[4′,5′:4,5]benzo[1,2-d]imidazol-6-yl)benzamide]
200 to 1000	200 to 1000	O=C(Nc1nc2cc3c(cc2[nH]1)OC(F)(F)O3)c1cscn1 [Compound 44, N-(2,2-difluoro-5H-[1,3]dioxolo[4′,5′:4,5]benzo[1,2-d]imidazol-6-yl)thiazole-4-carboxamide]
200 to 1000	200 to 1000	O=C(Nc1nc2cc3c(cc2[nH]1)OC(F)(F)O3)c1cccs1 [Compound 45, N-(2,2-difluoro-5H-[1,3]dioxolo[4′,5′:4,5]benzo[1,2-d]imidazol-6-yl)thiophene-2-carboxamide]
200 to 1000	200 to 1000	COc1ccc(C(=O)Nc2nc3cc4c(cc3[nH]2)OC(F)(F)O4)cc1 [Compound 46, N-(2,2-difluoro-5H-[1,3]dioxolo[4′,5′:4,5]benzo[1,2-d]imidazol-6-yl)-4-methoxybenzamide]
200 to 1000	> 1000	O=C(Nc1nc2cc3c(cc2[nH]1)OC(F)(F)O3)c1ccccc1OC(F)(F)F [Compound 47, N-(2,2-difluoro-5H-[1,3]dioxolo[4′,5′:4,5]benzo[1,2-d]imidazol-6-yl)-2-(trifluoromethoxy)benzamide]
< 200	200 to 1000	O=C(Nc1nc2cc3c(cc2[nH]1)OC(F)(F)O3)c1cnc(NC(=O)c2ccccc2OC(F)(F)F)o1 [Compound 48, N-(2,2-difluoro-5H-[1,3]dioxolo[4′,5′:4,5]benzo[1,2-d]imidazol-6-yl)-2-(2-(trifluoromethoxy)benzamido)oxazole-5-carboxamide]
< 200	< 200	O=C(Nc1nc2cc3c(cc2[nH]1)OC(F)(F)O3)c1ccccc1 [Compound 49, N-(2,2-difluoro-5H-[1,3]dioxolo[4′,5′:4,5]benzo[1,2-d]imidazol-6-yl)benzamide]
< 200	200 to 1000	O=C(Nc1nc2cc3c(cc2[nH]1)OC(F)(F)O3)c1nc(NC(=O)c2ccc(Cl)cc2Cl)n[nH]1 [Compound 51, 3-(2,4-dichlorobenzamido)-N-(2,2-difluoro-5H-[1,3]dioxolo[4′,5′:4,5]benzo[1,2-d]imidazol-6-yl)-1H-1,2,4-triazole-5-carboxamide]
< 200	200 to 1000	O=C(Nc1nc2cc3c(cc2[nH]1)OC(F)(F)O3)c1nc(NC(=O)c2ccccc2OC(F)(F)F)n[nH]1 [Compound 52, N-(2,2-difluoro-5H-[1,3]dioxolo[4′,5′:4,5]benzo[1,2-d]imidazol-6-yl)-3-(2-(trifluoromethoxy)benzamido)-1H-1,2,4-triazole-5-carboxamide]
